US20250257075A1, “MACROCYCLIC INHIBITORS OF KRAS FOR THE TREATMENT OF CANCER” (Hoffmann-La Roche Inc., priority 2022, published 2025)

Experiments:
human hepatocytes = assay: Human hepatocyte stability assay; type: in vitro ADME; conditions: for Clearance Category: human hepatocytes
Experimental: The hepatocyte stability assay measures the rate of disappearance of a compound from incubations with cryopreserved suspension hepatocytes from human. Positive controls, including Midazolam, Raloxifene and Dextromethorphan, are included in every experiment. Incubations consist of 1 μM tested compound and suspension of human hepatocytes (1×10^6 cells/mL) in supplemented Williams' E Medium with 10% FBS and 0.5% Penicillin-streptomycin. The hepatocyte suspension was incubated with intermittent shaking 900 rpm at 37° C., in a 5% CO2 incubator. The reaction was stopped by adding methanol containing internal standard (2 μM Tolbutamide) at 2, 10, 20, 40, 60 and 120 minutes after compound addition, depletion of the parent compound was monitored by LC-MS/MS analysis.

KRAS G12C-BRAF complex [1] = target: T1, KRAS G12C-BRAF complex (Homo sapiens, UniProt P01116+P62937, G12C); assay: KRAS G12C-BRAF NanoBit assay in HEK293 cells; type: cell-based; conditions: HEK293 stable cell pool, 3 hours of incubation
T1 construct: expressed in transfected cells
In short: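 HEK293 stable pool co-expressing SmBiT-KRAS G12C and BRAF RBD-LgBiT, exposed 3 h to compounds (16-point 3-fold dilution, top final 30 μM). Luminescence was read 20 min after Nano-Glo Live Cell substrate addition. A decrease versus DMSO control indicates disruption of the complex.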

KRAS G12C-BRAF complex [2] = target: T1, KRAS G12C-BRAF complex; assay: KRAS-BRAF with CYPA (500 nM) interaction assay (TR-FRET), G12C; type: biochemical; conditions: 3 hours
In short: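 TR-FRET (Ex320 nm, Em 665/615 nm) measured compound- or compound-CYPA-dependent disruption of KRAS-BRAF complex, with CYPA at 500 nM. Disruption scored as decrease in TR-FRET ratio versus DMSO control wells.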

[3] = tested on: phosphorylation of ERK, KRAS G12V in SW620; assay: pERK inhibition assay, G12V; type: cell-based, human; conditions: Homo sapiens, SW-620; SW620, 4 hours of incubation
In short: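 NCI-H358 (G12C), AGS (G12D) and SW620 (G12V) cells were seeded overnight at 30,000, 20,000 and 30,000 cells/well, respectively. They were then treated 4 h with compound (0.5% DMSO final), fixed, and methanol-permeabilized. pERK was detected by in-cell ELISA (anti-pERK/HRP, TMB, OD450); IC50 from a 4-parameter sigmoidal fit.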

[4] = Single Dose Pharmacokinetics (SDPK) study in female BALB/c mice; type: in vivo; conditions: mouse; for clearance: 3 mg/kg, iv; for clearance / AUC(0-t) / Cmax: female BALB/c mice, plasma
Experimental: The purpose of this study was to determine the pharmacokinetics of selected compounds following single intravenous bolus or oral gavage administration in female BALB/c mice. Briefly, two groups of female BALB/c mice (available from Zhejiang Vital River Laboratory Animal Technology Co., Ltd. or Shanghai Lingchang Biotechnology Co., Ltd) (N=3/group) were treated with a single dose of compound intravenously at 3 mg/kg (IV) or orally at 30 mg/kg (PO). Blood samples were collected at 5 min (only for IV), 15 min, 30 min, 1 h, 2 h, 4 h, 7 h and 24 h post-dose. Blood samples were placed on ice until centrifugation to obtain plasma samples. The concentration of compound in plasma samples was determined using LC-MS/MS method. The pharmacokinetic parameters were calculated by non-compartmental analysis.

[5] = 1 μM compound, human hepatocytes 1×10^6 cells/mL

T1 sequence (P01116 1-188 isoform P01116-2 G12C): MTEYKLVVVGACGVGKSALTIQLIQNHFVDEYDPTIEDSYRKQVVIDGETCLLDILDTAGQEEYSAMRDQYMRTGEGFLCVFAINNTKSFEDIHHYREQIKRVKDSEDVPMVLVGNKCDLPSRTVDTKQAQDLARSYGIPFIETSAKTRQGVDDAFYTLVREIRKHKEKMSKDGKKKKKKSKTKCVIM
T1 sequence (P62937 whole entry): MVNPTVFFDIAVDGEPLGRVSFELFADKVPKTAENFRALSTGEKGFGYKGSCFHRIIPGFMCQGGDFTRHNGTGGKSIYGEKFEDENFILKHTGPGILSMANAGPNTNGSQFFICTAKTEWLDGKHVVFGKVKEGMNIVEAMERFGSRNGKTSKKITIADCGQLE

| CL_hep (Human) (human hepatocytes; [5]) [mL/min/kg] | IC50 (KRAS G12C-BRAF complex [1]) [µM] | IC50 (KRAS G12C-BRAF complex [2]) [µM] | IC50 [3] [µM] | AUC0-last relative to A168 ([4]; 30 mg/kg, po, versus A168) [folds] | Cmax relative to A168 ([4]; 30 mg/kg, po, versus A168) [folds] | clearance [4] [mL/min/kg] | AUC(0-t) ([4]; 30 mg/kg, po) [ng·h/mL] | Cmax ([4]; 30 mg/kg, po) [ng/mL] | CL_hep (Human) (human hepatocytes; human, 1 μM) [mL/min/kg] | SMILES | Clearance Category (human hepatocytes) |
| --- | --- | --- | --- | --- | --- | --- | --- | --- | --- | --- | --- |
| 2.9 | 0.054 | 0.118 | 0.125 | – | – | – | – | – | – | CCn1c(-c2cc(N3CCN(CC(F)(F)F)CC3)cnc2[C@H](C)OC)c2c3cc(c(F)cc31)-c1csc(n1)C[C@H](NC(=O)[C@H](C(C)C)N(C)C(=O)[C@H]1C[C@@H](C#CC(F)(F)F)C1)C(=O)N1CCC[C@H](N1)C(=O)OCC(C)(C)C2 (atropisomer, axis not shown; (M)) [Example 8, cis-N-[(1S)-1-[[(7S,13S)-21-ethyl-24-fluoro-(20M)-20-[2-[(1S)-1-methoxyethyl]-5-[4-(2,2,2-trifluoroethyl)piperazin-1-yl]-3-pyridyl]-17,17-dimethyl-8,14-dioxo-15-oxa-4-thia-9,21,27,28-tetrazapentacyclo[17.5.2.1^2,5.1^9,13.0^22,26]octacosa-1(25),2,5(28),19,22(26),23-hexaen-7-yl]carbamoyl]-2-methyl-propyl]-N-methyl-3-(3,3,3-trifluoroprop-1-ynyl)cyclobutanecarboxamide] | low (CL_hep (mL/min/kg)<6.96 is low clearance) |
| 3.3 | 0.012 | 0.065 | 0.187 | 1.5 | ~2 | 14.2 | 2180 | 1510 | – | CCn1c(-c2cc(N3CCOCC3)cnc2[C@H](C)OC)c2c3cc(c(F)cc31)-c1csc(n1)C[C@H](NC(=O)[C@H](C(C)C)N(C)C(=O)[C@H]1C[C@@H](C#CC(F)(F)F)C1)C(=O)N1CCC[C@H](N1)C(=O)OCC(C)(C)C2 (atropisomer, axis not shown; (M)) [Example 11, cis-N-[(1S)-1-[[(7S,13S)-21-ethyl-24-fluoro-(20M)-20-[2-[(1S)-1-methoxyethyl]-5-morpholino-3-pyridyl]-17,17-dimethyl-8,14-dioxo-15-oxa-4-thia-9,21,27,28-tetrazapentacyclo[17.5.2.1^2,5.1^9,13.0^22,26]octacosa-1(25),2,5(28),19,22(26),23-hexaen-7-yl]carbamoyl]-2-methyl-propyl]-N-methyl-3-(3,3,3-trifluoroprop-1-ynyl)cyclobutanecarboxamide] | low (CL_hep (mL/min/kg)<6.96 is low clearance) |
| 8.8 | 0.205 | 0.173 | 0.176 | – | – | 77 | 1580 | 794 | – | CC#CC(=O)N1CC[C@H](C(=O)N(C)[C@H](C(=O)N[C@H]2Cc3nc(cs3)-c3ccc4c(c3)c(c(-c3cccnc3[C@H](C)OC)n4CC)CC(C)(C)COC(=O)[C@@H]3CCCN(N3)C2=O)C(C)C)C1 [Example A168, reference compound] | medium (16.24<CL_hep (mL/min/kg) >6.96 is medium clearance) |
| – | 0.036 | 0.099 | 0.009 | – | – | – | – | – | 3.6 | CO[C@@H](C)c1ncc(N2CCN(C)CC2)cc1-c1c2c3cc(c(F)cc3n1CC(F)(F)F)-c1csc(n1)C[C@H](NC(=O)[C@H](C(C)C)N(C)C(=O)[C@H]1C[C@@H](C#CC(F)(F)F)C1)C(=O)N1CCC[C@H](N1)C(=O)OCC(C)(C)C2 (atropisomer, axis not shown; (M)) [Example 3, cis-N-[(1S)-1-[[(7S,13S)-24-fluoro-(20M)-20-[2-[(1S)-1-methoxyethyl]-5-(4-methylpiperazin-1-yl)-3-pyridyl]-17,17-dimethyl-8,14-dioxo-21-(2,2,2-trifluoroethyl)-15-oxa-4-thia-9,21,27,28-tetrazapentacyclo[17.5.2.1^2,5.1^9,13.0^22,26]octacosa-1(25),2,5(28),19,22(26),23-hexaen-7-yl]carbamoyl]-2-methyl-propyl]-N-methyl-3-(3,3,3-trifluoroprop-1-ynyl)cyclobutanecarboxamide] | – |
